Source: patent US9096580B2 (priority 2012, dated 2015)
pEC50, pIC50: −log10 of the molar value.

Assays:
[1] = test system: genotype 1b HCV replicon in Huh-7 cells; assay: HCV replicon luciferase assay; format: cell-based, HCV genotype 1b; conditions: Hepatitis C virus, 72 h; Huh-7 genotype 1b replicon, Renilla luciferase, 3 days incubation
Procedure: The cell lines used to evaluate compounds consist of a human hepatocyte derived cell line (Huh-7) that constitutively expresses a genotype 1b HCV replicon containing a Renilla luciferase reporter gene. These cells were maintained in Dulbecco's modified Eagle medium (DMEM) containing 10% FBS, 100 U/mL penicillin/streptomycin and 1.0 mg/mL G418.
HCV Replicon Luciferase Assay.
To evaluate compound efficacy, titrated compounds were transferred to sterile 384-well tissue culture treated plates, and the plates were seeded with HCV replicon cells (50 μL at a density of 2.4×10^3 cells/well) in DMEM containing 4% FBS (final DMSO concentration at 0.5%). After 3 days incubation at 37° C., cells were analyzed for Renilla Luciferase activity using the EnduRen substrate (Promega cat #E6485) according to the manufacturer's directions. Briefly, the EnduRen substrate was diluted in DMEM and then added to the plates to a final concentration of 7.5 μM. The plates were incubated for at least 1 h at 37° C. then read on a Viewlux Imager (PerkinElmer) using a luminescence program. The 50% effective concentration (EC50) was calculated using the four-parameter logistic formula noted above.

HCV [2] = conditions: combination therapy; cited from earlier work
HCV [3] = conditions: cited from earlier work
[4] = target: HCV NS5B RdRp, genotype 1b (Hepatitis C virus genotype 1b (isolate Con1) (HCV), UniProt Q9WMX2); assay: HCV NS5B RdRp enzyme assay; format: biochemical, HCV genotype 1b
Procedure: HCV NS5B RdRp Cloning, Expression, and Purification.
The cDNA encoding the NS5B protein of HCV, genotype 1b, was cloned into the pET21a expression vector. The protein was expressed with an 18 amino acid C-terminal truncation to enhance the solubility. The E. coli competent cell line BL21(DE3) was used for expression of the protein. Cultures were grown at 37° C. for ˜4 hours until the cultures reached an optical density of 2.0 at 600 nm. The cultures were cooled to 20° C. and induced with 1 mM IPTG. Fresh ampicillin was added to a final concentration of 50 μg/mL and the cells were grown overnight at 20° C.
The lysis buffer consisted of 20 mM Tris-HCl, pH 7.4, 500 mM NaCl, 0.5% triton X-100, 1 mM DTT, 1 mM EDTA, 20% glycerol, 0.5 mg/mL lysozyme, 10 mM MgCl2, 15 ug/mL deoxyribonuclease I, and Complete TM protease inhibitor tablets (Roche). After addition of the lysis buffer, frozen cell pellets were resuspended using a tissue homogenizer. […]
After incubating for at least 15 minutes, plates were read on an Amersham LEADseeker multimodality imaging system.
IC50 values for compounds were determined using ten different [I]. IC50 values were calculated from the inhibition using the four-parameter logistic formula y=A+((B−A)/(1+((C/x)^D))), where A and B denote minimal and maximal % inhibition, respectively, C is the IC50, D is hill slope and x represents compound concentration.

Sequence of HCV NS5B RdRp, genotype 1b (Q9WMX2 2420-2992): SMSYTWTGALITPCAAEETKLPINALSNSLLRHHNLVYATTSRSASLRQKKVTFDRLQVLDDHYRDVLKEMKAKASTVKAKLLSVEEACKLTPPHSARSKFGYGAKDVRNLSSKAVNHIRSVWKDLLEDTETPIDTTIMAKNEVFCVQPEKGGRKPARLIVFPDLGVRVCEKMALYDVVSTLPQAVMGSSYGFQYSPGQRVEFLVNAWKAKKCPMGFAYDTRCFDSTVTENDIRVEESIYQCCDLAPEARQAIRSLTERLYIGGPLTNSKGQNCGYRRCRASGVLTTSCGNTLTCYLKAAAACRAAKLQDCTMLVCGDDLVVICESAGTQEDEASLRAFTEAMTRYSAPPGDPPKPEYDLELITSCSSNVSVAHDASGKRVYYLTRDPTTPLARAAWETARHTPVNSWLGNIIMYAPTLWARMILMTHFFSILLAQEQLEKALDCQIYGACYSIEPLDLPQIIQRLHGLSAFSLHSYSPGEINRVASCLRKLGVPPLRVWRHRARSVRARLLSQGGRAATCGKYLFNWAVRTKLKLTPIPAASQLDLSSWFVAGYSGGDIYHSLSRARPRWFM

Compound | pEC50 [1] | other results
CNC(=O)c1c(-c2ccc(F)cc2)oc2ccc(-c3cc(C(=O)NC4(c5ncccn5)CNC4)ccc3C)c(F)c12 [4-fluoro-2-(4-fluorophenyl)-N-methyl-5-(2-methyl-5-(3-(pyrimidin-2-yl)azetidin-3-ylcarbamoyl)phenyl)benzofuran-3-carboxamide] | 5.36 | 
alpha-interferon and ribavirin |  | sustained efficacy, share of patients (HCV [2]): 40%
CNC(=O)c1c(-c2ccc(F)cc2)oc2cc(N(CCO)S(C)(=O)=O)c(C3CC3)cc12 [HCV-796] |  | toxicity during extended dosing (HCV [3]; extended dosing of the combination regimens with interferon and ribavirin): hepatic toxicity; HCV RNA levels in patients (HCV [3]; patients, single agent: transient decrease then rebound): reduce HCV RNA levels
CNC(=O)c1c(-c2ccc(F)cc2)oc2ccc(-c3cc(C(=O)NC4(c5ncccn5)CN(C)C4)ccc3C)c(F)c12 | 5.61 | pIC50 [4]: 6.11
CNC(=O)c1c(-c2ccc(F)cc2)oc2ccc(-c3cc(C(=O)NC4(c5ncccn5)CN(C)C4)c(OC)cc3C)c(F)c12 | 5.92 | 
CNC(=O)c1c(-c2ccc(F)cc2)oc2ccc(-c3cc(C(=O)NC4(c5ncccn5)CN(C)C4)cc(F)c3C)c(F)c12 [4-fluoro-5-(3-fluoro-2-methyl-5-(1-methyl-3-(pyrimidin-2-yl)azetidin-3-ylcarbamoyl)phenyl)-2-(4-fluorophenyl)-N-methylbenzofuran-3-carboxamide] | 6.09 | 
CNC(=O)c1c(-c2ccc(F)cc2)oc2ccc(-c3cc(C(=O)NC4(c5ncccn5)CNC4)cc(F)c3C)c(F)c12 | 6.41 | pIC50 [4]: 6.48
CNC(=O)c1c(-c2ccc(F)cc2)oc2ccc(-c3cc(C(=O)NC4(c5ncccn5)CNC4)c(OC)cc3C)c(F)c12 | 6.05 | 
